In the kinase profiling compilation of Christmann-Franck et al. (2016):

Tests used:
Experiment in all cases: KINOMEscan competition binding
AAK1 (human) = AAK1 (human) (UniProt Q2M2I8); details: compound 1.0 µM
ACVRL1 (human) = ACVRL1 (human) (UniProt P37023); details: compound 1.0 µM
CAMK2A (human) = CAMK2A (human) (UniProt Q9UQM7); details: compound 1.0 µM
CAMKK2 (human) = CAMKK2 (human) (UniProt Q96RR4); details: compound 1.0 µM
CDK14 (human) = CDK14 (human) (UniProt O94921); details: compound 1.0 µM
CRK2 (P.falciparum) = CRK2 (P.falciparum) (UniProt P61075); details: compound 1.0 µM
CSK (human) = CSK (human) (UniProt P41240); details: compound 1.0 µM
CSNK1A1 (human) = CSNK1A1 (human) (UniProt P48729); details: compound 1.0 µM
DAPK2 (human) = DAPK2 (human) (UniProt Q9UIK4); details: compound 1.0 µM
DCLK3 (human) = DCLK3 (human) (UniProt Q9C098); details: compound 1.0 µM
DDR1 (human) = DDR1 (human) (UniProt Q08345); details: compound 1.0 µM
[1] = test system: EGFR (human), P00533 [752-759 del]; details: compound 1.0 µM
[2] = test system: EIF2AK4 KD2 (human), Q9P2K8 [S808G]; details: compound 1.0 µM
ERBB3 (human) = ERBB3 (human) (UniProt P21860); details: compound 1.0 µM
[3] = test system: FLT3 (human), P36888 [D835H]; details: compound 1.0 µM
[4] = test system: FLT3 (human), P36888 [D835Y]; details: compound 1.0 µM
[5] = test system: FLT3 (human), P36888 [K663Q]; details: compound 1.0 µM
ICK (human) = ICK (human) (UniProt Q9UPZ9); details: for kinase still bound, per cent of control: compound 1.0 µM
ICK (human), sequence (Q9UPZ9 whole entry, looked up): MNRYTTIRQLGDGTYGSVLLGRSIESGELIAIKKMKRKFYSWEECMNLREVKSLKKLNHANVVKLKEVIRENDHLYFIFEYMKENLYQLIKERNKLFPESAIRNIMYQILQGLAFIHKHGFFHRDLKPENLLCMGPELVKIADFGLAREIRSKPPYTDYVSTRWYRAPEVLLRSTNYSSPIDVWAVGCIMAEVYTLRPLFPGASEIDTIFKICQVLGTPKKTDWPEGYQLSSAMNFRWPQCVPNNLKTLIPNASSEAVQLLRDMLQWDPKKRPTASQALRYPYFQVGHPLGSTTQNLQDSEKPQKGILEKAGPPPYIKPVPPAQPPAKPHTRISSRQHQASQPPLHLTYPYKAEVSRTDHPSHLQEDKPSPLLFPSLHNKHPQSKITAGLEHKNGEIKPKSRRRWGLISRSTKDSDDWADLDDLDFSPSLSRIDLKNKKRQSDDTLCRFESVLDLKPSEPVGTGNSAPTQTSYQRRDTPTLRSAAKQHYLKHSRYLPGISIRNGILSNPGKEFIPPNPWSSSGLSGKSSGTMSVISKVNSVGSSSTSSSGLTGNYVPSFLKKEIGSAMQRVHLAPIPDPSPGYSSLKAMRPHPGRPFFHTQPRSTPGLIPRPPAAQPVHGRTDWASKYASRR

IRAK3 (human) = IRAK3 (human) (UniProt Q9Y616); details: compound 1.0 µM
[6] = biological target: JAK1 JH1 catalytic (human) (UniProt P23458); details: compound 1.0 µM
JAK1 JH1 catalytic (human), sequence (P23458 whole entry, looked up): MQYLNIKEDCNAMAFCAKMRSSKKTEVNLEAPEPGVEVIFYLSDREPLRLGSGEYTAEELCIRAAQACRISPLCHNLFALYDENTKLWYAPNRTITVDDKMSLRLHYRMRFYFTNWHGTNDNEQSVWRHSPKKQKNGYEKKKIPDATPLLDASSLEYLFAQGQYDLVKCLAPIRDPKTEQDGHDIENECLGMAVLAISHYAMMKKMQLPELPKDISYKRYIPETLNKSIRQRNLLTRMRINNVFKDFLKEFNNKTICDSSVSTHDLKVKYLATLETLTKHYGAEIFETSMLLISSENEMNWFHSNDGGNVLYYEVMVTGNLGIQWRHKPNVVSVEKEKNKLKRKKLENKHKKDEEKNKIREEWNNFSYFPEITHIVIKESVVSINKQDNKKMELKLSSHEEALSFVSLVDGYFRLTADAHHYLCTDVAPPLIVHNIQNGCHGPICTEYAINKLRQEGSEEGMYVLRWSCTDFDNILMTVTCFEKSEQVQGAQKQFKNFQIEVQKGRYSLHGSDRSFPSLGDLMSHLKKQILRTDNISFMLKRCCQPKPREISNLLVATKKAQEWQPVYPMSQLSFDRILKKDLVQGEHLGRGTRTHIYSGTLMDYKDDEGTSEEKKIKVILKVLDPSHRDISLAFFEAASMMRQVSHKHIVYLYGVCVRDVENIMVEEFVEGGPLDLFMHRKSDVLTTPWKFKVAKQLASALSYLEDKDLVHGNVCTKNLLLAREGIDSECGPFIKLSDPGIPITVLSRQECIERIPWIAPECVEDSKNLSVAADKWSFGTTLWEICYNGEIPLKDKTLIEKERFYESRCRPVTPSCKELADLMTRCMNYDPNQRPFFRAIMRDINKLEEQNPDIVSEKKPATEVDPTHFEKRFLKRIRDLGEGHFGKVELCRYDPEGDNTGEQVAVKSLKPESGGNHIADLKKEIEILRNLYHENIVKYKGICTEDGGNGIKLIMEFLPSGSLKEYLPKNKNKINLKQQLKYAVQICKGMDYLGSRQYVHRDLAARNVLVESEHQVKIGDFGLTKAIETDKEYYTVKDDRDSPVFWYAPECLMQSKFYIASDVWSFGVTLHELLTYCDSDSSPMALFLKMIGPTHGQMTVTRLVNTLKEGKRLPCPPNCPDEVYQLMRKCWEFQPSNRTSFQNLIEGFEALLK

[7] = biological target: JAK1 JH2 pseudokinase (human) (UniProt P23458); details: compound 1.0 µM
JAK1 JH2 pseudokinase (human), sequence (P23458 whole entry, looked up): as above

LCK (human) = LCK (human) (UniProt P06239); details: compound 1.0 µM
LCK (human), sequence (P06239 whole entry, looked up): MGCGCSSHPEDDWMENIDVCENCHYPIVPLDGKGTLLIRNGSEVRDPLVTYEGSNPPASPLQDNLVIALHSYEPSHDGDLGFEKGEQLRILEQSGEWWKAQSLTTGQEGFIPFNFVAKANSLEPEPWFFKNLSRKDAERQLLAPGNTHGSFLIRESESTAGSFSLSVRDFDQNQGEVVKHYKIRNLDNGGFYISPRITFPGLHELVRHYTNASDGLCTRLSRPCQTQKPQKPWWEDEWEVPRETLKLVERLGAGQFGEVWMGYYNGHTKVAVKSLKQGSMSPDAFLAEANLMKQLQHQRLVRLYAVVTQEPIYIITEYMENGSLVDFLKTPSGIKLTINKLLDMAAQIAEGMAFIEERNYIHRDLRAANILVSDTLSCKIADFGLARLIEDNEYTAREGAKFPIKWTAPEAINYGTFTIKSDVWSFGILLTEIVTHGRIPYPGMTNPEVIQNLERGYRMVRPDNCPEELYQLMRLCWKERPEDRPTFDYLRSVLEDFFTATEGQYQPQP

MAK (human) = MAK (human) (UniProt P20794); details: compound 1.0 µM
MAP2K1 (human) = MAP2K1 (human) (UniProt Q02750); details: compound 1.0 µM
MAP4K5 (human) = MAP4K5 (human) (UniProt Q9Y4K4); details: compound 1.0 µM
MAP4K5 (human), sequence (Q9Y4K4 whole entry, looked up): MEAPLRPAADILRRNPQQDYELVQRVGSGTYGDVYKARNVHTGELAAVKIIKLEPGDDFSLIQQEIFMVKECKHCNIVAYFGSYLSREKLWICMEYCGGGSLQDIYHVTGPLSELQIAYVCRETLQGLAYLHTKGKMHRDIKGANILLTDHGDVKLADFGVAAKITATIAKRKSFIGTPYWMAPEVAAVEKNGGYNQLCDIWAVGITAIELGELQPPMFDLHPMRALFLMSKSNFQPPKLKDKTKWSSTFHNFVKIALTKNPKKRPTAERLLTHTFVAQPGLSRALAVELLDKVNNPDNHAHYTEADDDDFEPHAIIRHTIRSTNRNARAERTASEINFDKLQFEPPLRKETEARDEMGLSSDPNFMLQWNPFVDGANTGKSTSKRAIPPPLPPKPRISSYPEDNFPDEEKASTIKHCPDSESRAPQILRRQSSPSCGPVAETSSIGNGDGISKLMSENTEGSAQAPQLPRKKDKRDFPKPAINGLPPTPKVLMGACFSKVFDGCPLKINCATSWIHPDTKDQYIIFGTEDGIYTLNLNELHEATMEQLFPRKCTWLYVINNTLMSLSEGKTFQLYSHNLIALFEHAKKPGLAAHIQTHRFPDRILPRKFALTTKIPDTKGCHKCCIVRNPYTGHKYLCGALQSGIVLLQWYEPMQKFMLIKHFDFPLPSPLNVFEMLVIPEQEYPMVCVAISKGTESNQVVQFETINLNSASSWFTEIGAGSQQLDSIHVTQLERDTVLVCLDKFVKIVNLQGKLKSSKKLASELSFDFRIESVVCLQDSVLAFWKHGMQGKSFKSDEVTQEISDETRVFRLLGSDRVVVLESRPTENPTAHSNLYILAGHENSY

MAPK1 (human) = MAPK1 (human) (UniProt P28482); details: compound 1.0 µM
MAPK14 (human) = MAPK14 (human) (UniProt Q16539); details: compound 1.0 µM
MET (human) = MET (human) (UniProt P08581); details: compound 1.0 µM
MKNK1 (human) = MKNK1 (human) (UniProt Q9BUB5); details: compound 1.0 µM
MYLK3 (human) = MYLK3 (human) (UniProt Q32MK0); details: compound 1.0 µM
NEK6 (human) = NEK6 (human) (UniProt Q9HC98); details: compound 1.0 µM
NEK6 (human), sequence (Q9HC98 whole entry, looked up): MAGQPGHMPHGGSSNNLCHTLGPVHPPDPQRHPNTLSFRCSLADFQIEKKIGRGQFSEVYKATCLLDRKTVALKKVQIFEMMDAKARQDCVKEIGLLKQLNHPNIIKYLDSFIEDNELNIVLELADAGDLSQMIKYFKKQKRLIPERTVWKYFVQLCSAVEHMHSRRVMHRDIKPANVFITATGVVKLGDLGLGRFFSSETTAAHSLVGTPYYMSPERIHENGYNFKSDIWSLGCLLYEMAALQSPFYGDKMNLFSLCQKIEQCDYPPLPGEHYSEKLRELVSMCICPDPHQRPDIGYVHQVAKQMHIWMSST

NUAK2 (human) = NUAK2 (human) (UniProt Q9H093); details: compound 1.0 µM
[8] = test system: PIK3CA (human), P42336 [E545K]; details: compound 1.0 µM
PIK3CA (human), P42336 [E545K], sequence (P42336 whole entry E545K, looked up): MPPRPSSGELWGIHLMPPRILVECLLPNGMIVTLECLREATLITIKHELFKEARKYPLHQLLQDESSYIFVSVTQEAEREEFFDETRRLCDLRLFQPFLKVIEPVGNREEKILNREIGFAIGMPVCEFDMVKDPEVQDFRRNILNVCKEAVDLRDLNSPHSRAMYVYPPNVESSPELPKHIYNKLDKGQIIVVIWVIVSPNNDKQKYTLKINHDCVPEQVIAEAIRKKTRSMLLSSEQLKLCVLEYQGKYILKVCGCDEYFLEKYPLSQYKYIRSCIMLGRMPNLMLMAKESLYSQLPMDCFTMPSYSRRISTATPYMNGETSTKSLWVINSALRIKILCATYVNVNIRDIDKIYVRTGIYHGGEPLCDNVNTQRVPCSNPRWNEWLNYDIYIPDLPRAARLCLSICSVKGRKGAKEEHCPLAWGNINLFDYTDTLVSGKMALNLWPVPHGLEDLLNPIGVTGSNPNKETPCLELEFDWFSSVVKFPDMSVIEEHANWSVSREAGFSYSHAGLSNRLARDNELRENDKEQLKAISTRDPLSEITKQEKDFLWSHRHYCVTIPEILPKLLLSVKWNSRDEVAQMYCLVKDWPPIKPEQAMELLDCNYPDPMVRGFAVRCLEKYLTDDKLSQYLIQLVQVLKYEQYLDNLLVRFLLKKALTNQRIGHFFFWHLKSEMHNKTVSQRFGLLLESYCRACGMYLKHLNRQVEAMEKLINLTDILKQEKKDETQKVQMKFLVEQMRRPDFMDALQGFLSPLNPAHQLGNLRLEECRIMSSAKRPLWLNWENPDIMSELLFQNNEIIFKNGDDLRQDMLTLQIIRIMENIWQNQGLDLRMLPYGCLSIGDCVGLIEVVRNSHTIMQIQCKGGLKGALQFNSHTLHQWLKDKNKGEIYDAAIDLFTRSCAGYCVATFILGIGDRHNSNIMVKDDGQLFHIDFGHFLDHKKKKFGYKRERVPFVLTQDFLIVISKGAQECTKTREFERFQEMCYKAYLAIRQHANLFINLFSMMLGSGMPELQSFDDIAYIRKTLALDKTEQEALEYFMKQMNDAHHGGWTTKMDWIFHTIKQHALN

PIK3CB (human) = PIK3CB (human) (UniProt P42338); details: compound 1.0 µM
PIK3CD (human) = PIK3CD (human) (UniProt O00329); details: compound 1.0 µM
PLK3 (human) = PLK3 (human) (UniProt Q9H4B4); details: compound 1.0 µM
[9] = test system: RET (human), P07949 [V804L]; details: compound 1.0 µM
STK39 (human) = STK39 (human) (UniProt Q9UEW8); details: compound 1.0 µM
STK4 (human) = STK4 (human) (UniProt Q13043); details: compound 1.0 µM
STK4 (human), sequence (Q13043 whole entry, looked up): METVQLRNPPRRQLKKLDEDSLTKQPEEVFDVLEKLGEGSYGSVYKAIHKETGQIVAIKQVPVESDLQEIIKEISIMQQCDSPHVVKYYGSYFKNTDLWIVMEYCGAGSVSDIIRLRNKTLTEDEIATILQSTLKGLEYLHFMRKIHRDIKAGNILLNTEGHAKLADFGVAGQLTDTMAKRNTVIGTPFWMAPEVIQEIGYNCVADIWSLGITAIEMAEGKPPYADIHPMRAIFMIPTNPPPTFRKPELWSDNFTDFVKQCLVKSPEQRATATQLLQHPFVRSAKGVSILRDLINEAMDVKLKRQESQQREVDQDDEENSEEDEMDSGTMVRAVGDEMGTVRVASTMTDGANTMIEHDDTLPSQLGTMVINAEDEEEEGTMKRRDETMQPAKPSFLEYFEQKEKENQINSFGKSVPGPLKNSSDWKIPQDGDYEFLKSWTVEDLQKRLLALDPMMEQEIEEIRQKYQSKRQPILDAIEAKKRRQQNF

TEC (human) = TEC (human) (UniProt P42680); details: compound 1.0 µM
TNK1 (human) = TNK1 (human) (UniProt Q13470); details: compound 1.0 µM
[10] = biological target: TYK2 JH2 pseudokinase (human) (UniProt P29597); details: compound 1.0 µM

Compound `CN(C)C/C=C/C(=O)Nc1cccc(C(=O)Nc2ccc(Nc3nccc(-c4cccnc4)n3)cc2)c1` has a kinase still bound, per cent of control (AAK1 (human)) of 18%, a kinase still bound, per cent of control (ACVRL1 (human)) of 100% and a kinase still bound, per cent of control (CAMK2A (human)) of 100%. The kinase still bound, per cent of control (CAMKK2 (human)) was 40%, the kinase still bound, per cent of control (CDK14 (human)) was 53% and the kinase still bound, per cent of control (CRK2 (P.falciparum)) was 100%. It also gave a kinase still bound, per cent of control (CSK (human)) of 97%, a kinase still bound, per cent of control (CSNK1A1 (human)) of 19% and a kinase still bound, per cent of control (DAPK2 (human)) of 75%. For the same compound, the kinase still bound, per cent of control (DCLK3 (human)) was 100%, the kinase still bound, per cent of control (DDR1 (human)) was 100% and the kinase still bound, per cent of control [1] was 81%. For the same compound, the kinase still bound, per cent of control [2] was 80%, the kinase still bound, per cent of control (ERBB3 (human)) was 100% and the kinase still bound, per cent of control [3] was 29%. The kinase still bound, per cent of control [4] was 13%, the kinase still bound, per cent of control [5] was 48% and the Kd (ICK (human)) was 54 nM. The kinase still bound, per cent of control (ICK (human)) was 3.4%, the kinase still bound, per cent of control (IRAK3 (human)) was 20% and the kinase still bound, per cent of control [6] was 100%. For the same compound, the kinase still bound, per cent of control [7] was 8.6%, the kinase still bound, per cent of control (LCK (human)) was 100% and the kinase still bound, per cent of control (MAK (human)) was 5.6%. For the same compound, the kinase still bound, per cent of control (MAP2K1 (human)) was 46%, the kinase still bound, per cent of control (MAP4K5 (human)) was 52% and the kinase still bound, per cent of control (MAPK1 (human)) was 100%. It also gave a kinase still bound, per cent of control (MAPK14 (human)) of 83%, a kinase still bound, per cent of control (MET (human)) of 100% and a kinase still bound, per cent of control (MKNK1 (human)) of 100%. It also gave a kinase still bound, per cent of control (MYLK3 (human)) of 85%, a kinase still bound, per cent of control (NEK6 (human)) of 17% and a kinase still bound, per cent of control (NUAK2 (human)) of 31%. It also gave a kinase still bound, per cent of control [8] of 100%, a kinase still bound, per cent of control (PIK3CB (human)) of 94% and a kinase still bound, per cent of control (PIK3CD (human)) of 100%. The kinase still bound, per cent of control (PLK3 (human)) was 75%, the kinase still bound, per cent of control [9] was 100% and the kinase still bound, per cent of control (STK39 (human)) was 95%. The kinase still bound, per cent of control (STK4 (human)) was 45%, the kinase still bound, per cent of control (TEC (human)) was 100% and the kinase still bound, per cent of control (TNK1 (human)) was 67%. It also gave a kinase still bound, per cent of control [10] of 5.8%.
`CN(C)C/C=C/C(=O)Nc1cccc(C(=O)Nc2ccc(Nc3nccc(-c4c(-c5ccccc5)nn5ccccc45)n3)cc2)c1` was tested, and the kinase still bound, per cent of control (AAK1 (human)) was 100%, the kinase still bound, per cent of control (ACVRL1 (human)) was 22% and the kinase still bound, per cent of control (CAMK2A (human)) was 100%. It also gave a kinase still bound, per cent of control (CAMKK2 (human)) of 100%, a kinase still bound, per cent of control (CDK14 (human)) of 100% and a kinase still bound, per cent of control (CRK2 (P.falciparum)) of 100%. It also gave a kinase still bound, per cent of control (CSK (human)) of 89%, a kinase still bound, per cent of control (CSNK1A1 (human)) of 2% and a kinase still bound, per cent of control (DAPK2 (human)) of 97%. It also gave a kinase still bound, per cent of control (DCLK3 (human)) of 86%, a kinase still bound, per cent of control (DDR1 (human)) of 0% and a kinase still bound, per cent of control [1] of 7.8%. For the same compound, the kinase still bound, per cent of control [2] was 76%, the kinase still bound, per cent of control (ERBB3 (human)) was 43% and the kinase still bound, per cent of control [3] was 13%. For the same compound, the kinase still bound, per cent of control [4] was 54%, the kinase still bound, per cent of control [5] was 12% and the kinase still bound, per cent of control (ICK (human)) was 100%. The kinase still bound, per cent of control (IRAK3 (human)) was 64%, the kinase still bound, per cent of control [6] was 89% and the kinase still bound, per cent of control [7] was 79%. The kinase still bound, per cent of control (LCK (human)) was 8.6%, the kinase still bound, per cent of control (MAK (human)) was 100% and the kinase still bound, per cent of control (MAP2K1 (human)) was 100%. The kinase still bound, per cent of control (MAP4K5 (human)) was 27%, the kinase still bound, per cent of control (MAPK1 (human)) was 100% and the kinase still bound, per cent of control (MAPK14 (human)) was 2.1%. For the same compound, the kinase still bound, per cent of control (MET (human)) was 55%, the kinase still bound, per cent of control (MKNK1 (human)) was 96% and the kinase still bound, per cent of control (MYLK3 (human)) was 91%. It also gave a kinase still bound, per cent of control (NEK6 (human)) of 100%, a kinase still bound, per cent of control (NUAK2 (human)) of 89% and a kinase still bound, per cent of control [8] of 100%. It also gave a kinase still bound, per cent of control (PIK3CB (human)) of 100%, a kinase still bound, per cent of control (PIK3CD (human)) of 95% and a kinase still bound, per cent of control (PLK3 (human)) of 100%. For the same compound, the kinase still bound, per cent of control [9] was 89%, the kinase still bound, per cent of control (STK39 (human)) was 82% and the kinase still bound, per cent of control (STK4 (human)) was 4.2%. For the same compound, the kinase still bound, per cent of control (TEC (human)) was 100%, the kinase still bound, per cent of control (TNK1 (human)) was 100% and the kinase still bound, per cent of control [10] was 100%.
